Tests used:
[1] = microbe, parasite or virus in culture; conditions: Mycobacterium tuberculosis, 72 h, read-out: pIC50 (converted)
[2] = microbe, parasite or virus in culture; conditions: Mycobacterium tuberculosis, 96 h, read-out: pIC50 (converted)

Row | SMILES | IC50 [1] [µM] | IC50 [2] [µM]
1 | Cc1cc(=O)[nH]c(-n2nc(-c3ccccc3)cc2N)n1 | 43.5 | > 50.1
2 | Clc1ccc(-c2nnc([C@H]3CCN(C4CCCCC4)C3)o2)cc1 | 7.04 | 24.2
3 | CN1CCOC[C@H]1c1nc(-c2cccnc2)c[nH]1 | > 50.1 | > 50.1
4 | Cc1ccc2c(c1)nc1n2[C@@H](CNC(=O)c2cccnc2)COC1 | > 50.1 | > 50.1
5 | COc1ccc(CN2CCOC[C@H](OCCC(C)C)C2)cc1 | > 50.1 | > 50.1
6 | FC(F)(F)c1ccccc1CN1CCOC[C@H](Oc2cccnc2)C1 | 48 | 18.7
7 | COc1ccc(CN2C[C@H]3CN(C(=O)c4ccno4)CCN3C2=O)cc1 | > 50.1 | > 50.1
8 | O=C(c1ccno1)N1CCOC[C@H](Oc2ccc(C(F)(F)F)cc2)C1 | > 50.1 | > 50.1
9 | CS(=O)(=O)NC[C@H]1Cn2c(-c3ccc(Cl)cc3)cnc2CO1 | > 50.1 | > 50.1
10 | CN(C)[C@H]1C[C@@H](Cc2cc(-c3ccc(F)cc3)on2)C1(C)C | > 50.1 | > 50.1
11 | Cc1ccc(-c2noc([C@@H]3Cc4nc[nH]c4CN3)n2)cc1 | 1.94 | 2.31
12 | CC1=C[C@@H](CN2CCCC2)[C@H](C(C)C)C[C@H]1Cc1nnc(C)o1 | > 50.1 | > 50.1
13 | CCn1nnc(NCc2ccccc2OCc2ccc(Cl)cc2)n1 | > 50.1 | 0.308
14 | CCOc1nn(CC)cc1-c1nnc(SCc2ccccn2)n1C | 25.4 | > 50.1
15 | CC(=O)NCC(Cc1cccc(F)c1)n1cccc1 (stereo not given) | > 50.1 | 42.5
16 | CCOCC(=O)NCC(Cc1cccc(F)c1)n1cccc1 (stereo not given) | 10.4 | 11.7
17 | O=C(NCC(F)(F)F)C1CN(C(=O)c2cnccn2)C1 | > 50.1 | > 50.1
18 | CC1CCCN(C(=O)c2nnn(-c3ccc(C(F)(F)F)cc3)n2)C1 (stereo not given) | 18.3 | 43.9
19 | CN(C)C(=O)c1nnn(-c2ccc(Br)cc2)n1 | 12.6 | 14.2
20 | O=C(c1cc(C2CC2)on1)N1CCC(Oc2ncccc2Cl)CC1 | 48.7 | 24.9
21 | O=C(CCC(=O)N1CCC(Oc2ncccc2Br)CC1)c1ccccc1 | 34.6 | 45.4
22 | O=C(c1cc(C2CC2)on1)N1CCC(Oc2ncccc2Br)CC1 | > 50.1 | 24.2
23 | O=S(=O)(NCCNc1ccc(-n2cccc2)nn1)c1ccccc1 | 15.5 | 16.5
24 | O=S(=O)(NCCNc1ccc(-n2cccc2)nn1)c1cccs1 | 14 | 13.4
25 | COc1cc(C(=O)NCCCc2ccccc2)on1 | > 50.1 | > 50.1

Row | SMILES | IC50 [1] [µM] | IC50 [2] [µM]
26 | COc1cc(C(=O)NCCc2ccc(Cl)cc2)on1 | 4.56 | > 50.1
27 | COCCN(Cc1ccoc1)S(=O)(=O)c1ccc(F)c(Cl)c1 | > 50.1 | > 50.1
28 | COC1(CNC(=O)c2cccc(C#N)c2)CCSC1 (stereo not given) | > 50.1 | > 50.1
29 | Cc1nsc(C(=O)NCCc2ccccc2)n1 | 15.5 | 20.9
30 | Cc1nsc(C(=O)NCCCc2ccccc2)n1 | > 50.1 | 47.1
31 | Cc1nsc(C(=O)NCCc2ccc(Cl)cc2)n1 | 19.4 | 12.7
32 | Cc1nsc(C(=O)NCCc2ccc(F)cc2)n1 | 1.84 | 12.5
33 | COC[C@@H]1CN(C)C(=O)[C@@H]2CCN(Cc3ccco3)CC[C@H]12 | > 50.1 | > 50.1
34 | CC(=O)NCC(=O)N1CCc2nc(-c3ccccc3)nc(C)c2CC1 | > 50.1 | > 50.1
35 | Cc1nc(NC(C)C)nc2c1CN(Cc1cccs1)CC2 | > 50.1 | 27
36 | CC(=O)NCc1noc2c1CN(Cc1ccsc1)CC2 | > 50.1 | > 50.1
37 | FC1(F)CCNCC12CCN(c1ncccn1)C2 (stereo not given) | > 50.1 | > 50.1
38 | CC(C)CNC(=O)c1cc2c(s1)CCN2Cc1cccnc1 | > 50.1 | > 50.1
39 | CN(C)c1ncnc2c1CCN(c1cccc(F)c1)CC2 | > 50.1 | > 50.1
40 | O=C(c1cc(-c2ccn(CC3CC3)n2)n2ccccc12)N1CCCO1 | 3.54 | 1.05
41 | Cc1nc(CNCC2COCc3c(-c4ccoc4)nnn3C2)cs1 (stereo not given) | > 50.1 | > 50.1
42 | Fc1cnc(N2CCOCC3(CCCN(c4cnccn4)C3)C2)nc1 (stereo not given) | > 50.1 | > 50.1
43 | O=C1CC2(CCN(Cc3cccs3)C2)CN1c1cccc(F)c1 (stereo not given) | 1.43 | 18.6
44 | CC(C)Nc1nc(N2CCCC2)nc2c1CN(c1ncc(F)cn1)CC2 | 46.4 | 28.3
45 | O=C(CC1CC1)N[C@@H]1CN(Cc2ccoc2)C[C@@H]2CCCO[C@@H]21 | > 50.1 | > 50.1
46 | CCOC(=O)CSc1ccc(-c2nc(CC)no2)cn1 | 29.9 | 27.2
47 | Cc1ccc(N2N=C(C(N)=O)S(=O)(=O)c3cccnc32)cc1 | 14.5 | 36
48 | COc1cccc(N2Cc3nc(=O)n(C(C)C)n3C2=O)c1 | > 50.1 | > 50.1
49 | CCc1c(C)n(CCC#N)c2nc3ccccc3n2c1=O | > 50.1 | > 50.1
50 | CCSC1=Nc2c(cnn2-c2ccc(Cl)cc2)C2=NCCCN12 | 12.8 | 17.1

Row | SMILES | IC50 [1] [µM] | IC50 [2] [µM]
51 | CSC1=Nc2c(cnn2-c2cccc(Cl)c2)C2=NCCCN12 | 5.78 | 28.3
52 | CSC1=Nc2c(cnn2-c2ccc(C)cc2)C2=NCCCN12 | 0.957 | > 50.1
53 | O=S(=O)(Cc1ccc(Br)cc1)NCCO | > 50.1 | > 50.1
54 | CCCC1c2cccn2CCN1C(=O)Cn1cnc2sc(C)cc2c1=O (stereo not given) |  | > 50.1
55 | CO[C@H]1C[C@@H]2CN(C(=O)Cc3ccc(C)s3)C[C@@H]2C1 |  | > 50.1
56 | CO[C@H]1C[C@@H]2CN(C(=O)c3ccc(C)s3)C[C@@H]2C1 |  | 22.3
57 | NCCn1nc(C2CCN(C(=O)Cc3ccccc3)C2)c2nccnc21 (stereo not given) |  | > 50.1
58 | CCOCc1nnc(NCc2ccsc2)o1 |  | 24.8
59 | Cc1cnn(-c2cccc(N3CCN(c4cc(C)nc(C)n4)CC3)n2)c1 |  | > 50.1
60 | CCN(C(=O)CCCOC)C(c1ccc(Cl)cc1)c1ccccn1 (stereo not given) |  | > 50.1
61 | Cc1cccc(NCc2ncc(C(C)(C)C)o2)c1 |  | 12
62 | CCc1nc2c(NCC3COc4c(cccc4OC)C3)ncnc2o1 (stereo not given) |  | > 50.1
63 | CCSc1ncc(CN2CCN(c3ncc(C)c(N)n3)CC2)cn1 |  | 20.4
64 | COc1coc(CN2CCCC(CCc3c(F)cccc3F)C2)cc1=O (stereo not given) |  | 9.45
65 | O=C(c1nn(-c2ccccc2F)cc1O)N1CCC2(CC1)OCCO2 |  | > 50.1
66 | CCCC(=O)N(CCCN1CCOCC1)c1nc2c(C)ccc(Cl)c2s1 | 12.8 | 19.2
67 | CCCC(=O)N(CCCN1CCOCC1)c1nc2c(C)c(C)ccc2s1 | > 50.1 | > 50.1
68 | CCC(CO)NCc1ccc(-c2ccc(Br)cc2)o1 (stereo not given) | 44.3 | 27.5
69 | CCC(CO)NCc1ccc(-c2ccc(F)c(Cl)c2)o1 (stereo not given) | 35.4 | 13.2
70 | CN1CCCC1c1cc2cccnc2n1Cc1ccc(F)cc1 (stereo not given) |  | > 50.1
71 | c1csc(CN2CC(c3nc(-c4cnccn4)no3)C2)c1 | > 50.1 | > 50.1
72 | Clc1ccc(COCC2CCN(Cc3ccccn3)CC2)cc1 | 26.2 | 26.8
73 | CCN1C[C@@H]2[C@@H](OC)CCN(C(=O)Cc3ccsc3)[C@@H]2C1 | > 50.1 | > 50.1
74 | N#Cc1ccc(N2CCC3(CC2)COCCN3Cc2cccnc2)cc1 | > 50.1 | > 50.1
75 | Cc1ccc(N2CCN(C)c3ncccc3C2)nn1 | > 50.1 | > 50.1

Row | SMILES | IC50 [1] [µM] | IC50 [2] [µM]
76 | COCc1n[nH]c2c1CN(C(=O)c1ccncc1)C2 | 29.7 | > 50.1
77 | CC(=O)N1CCCC1c1nnn2cc(-c3ccncc3)ccc12 (stereo not given) | > 50.1 | > 50.1
78 | CCN1C(=O)[C@H]2CN(CC(C)C)C[C@H]2C12CCN(S(C)(=O)=O)CC2 | > 50.1 | > 50.1
79 | Cc1ccc(CN2CCOC3(CCN(C(=O)C4CC=CC4)CC3)C2)cc1 | 30.5 | 40.9
80 | O=C1[C@H]2CN(C3CCOC3)C[C@H]2CN1c1ccccc1 (stereo not given in full) | > 50.1 | > 50.1
81 | OCCN1CCC2(CCc3cc(-c4ccoc4)ccc32)CC1 | 23.5 | 24.1
82 | CCOCc1cnc2n1CCN(C(=O)Cc1ccccn1)C2C (stereo not given) | > 50.1 | > 50.1
83 | O=C1COC2(CCN(c3ccccn3)CC2)CN1 | > 50.1 | > 50.1
84 | Cc1nc(N2CCCC2)nc2c1CCN(Cc1ccsc1)CC2 | 0.893 | 1.59
85 | Cc1nc(N2CCCC2)nc2c1CCN(Cc1ccoc1)CC2 | 22.8 | 14.7
86 | Cc1ccc(CN2CCC3(CC(=O)N(c4cccc(F)c4)C3)C2)o1 (stereo not given) | 20.3 | > 50.1
87 | Cc1nnc(N2CC[C@@H](OCC3CC3)[C@@H](Cc3ccccc3)C2)s1 | 38.3 | > 50.1
88 | Cn1cc(C(=O)N[C@@H]2CN(Cc3ccc(F)cc3)[C@@H]3CCCO[C@@H]32)cn1 | > 50.1 | > 50.1
89 | O=C(c1ccc(F)cc1)N1C[C@H]2CCC[C@@]2(COCc2ccncc2)C1 | > 50.1 | > 50.1
90 | COc1ccc(C[C@H]2CN(C(=O)CN(C)C)CC[C@H]2OC)cc1 |  | > 50.1
91 | CN(C)CC(=O)N1CCC2(CCc3cc(-c4cccnc4)ccc32)CC1 | > 50.1 | > 50.1
92 | CN1[C@H](CN2CCCC2)C[C@@H]2CN(C(=O)c3cccn3C)CC[C@@H]21 |  | > 50.1
93 | CC(C)N1[C@H](CN2CCCC2)C[C@@H]2CN(Cc3ccoc3)CC[C@@H]21 | > 50.1 | > 50.1
94 | O=C(CN(C1=NCCCCC1)c1ccc(Cl)cc1)c1ccccc1 | 20.7 | 22.8
95 | O=C(CN(C1=NCCCC1)c1ccccc1)c1ccc(OC(F)F)cc1 | 39.3 | 24.6
96 | CC(N)Cc1ccccc1Sc1ccc(O)cc1 (stereo not given) | > 50.1 | > 50.1
97 | NC1CCS(=O)(=O)c2ccc(Br)cc21 (stereo not given) |  | 89.1
98 | Nc1ncnc2[nH]c(N3CCCCC3)nc12 | > 50.1 | > 50.1
